Reference: BigSolDB 2.1

## Oc1ccc(Cl)cc1C=Nc1ccccn1
In THF, 268.15 K
  solubility (mole fraction): 0.0285
In THF, 273.15 K
  solubility (mole fraction): 0.0323
In THF, 278.15 K
  solubility (mole fraction): 0.0362
In THF, 283.15 K
  solubility (mole fraction): 0.0406
In THF, 288.15 K
  solubility (mole fraction): 0.0466
In THF, 293.15 K
  solubility (mole fraction): 0.0545
In THF, 298.15 K
  solubility (mole fraction): 0.0649
In THF, 303.15 K
  solubility (mole fraction): 0.0735
In dichloromethane, 268.15 K
  solubility (mole fraction): 0.00836
In dichloromethane, 273.15 K
  solubility (mole fraction): 0.0124
In dichloromethane, 278.15 K
  solubility (mole fraction): 0.0166
In dichloromethane, 283.15 K
  solubility (mole fraction): 0.0193
In dichloromethane, 288.15 K
  solubility (mole fraction): 0.0247
In dichloromethane, 293.15 K
  solubility (mole fraction): 0.0306
In dichloromethane, 298.15 K
  solubility (mole fraction): 0.0355
In dichloromethane, 303.15 K
  solubility (mole fraction): 0.0429
In diethyl ether, 268.15 K
  solubility (mole fraction): 0.00329
In diethyl ether, 273.15 K
  solubility (mole fraction): 0.00427
In diethyl ether, 278.15 K
  solubility (mole fraction): 0.00513
In diethyl ether, 283.15 K
  solubility (mole fraction): 0.00605
In diethyl ether, 288.15 K
  solubility (mole fraction): 0.00728
In diethyl ether, 293.15 K
  solubility (mole fraction): 0.00844
In diethyl ether, 298.15 K
  solubility (mole fraction): 0.0105
In diethyl ether, 303.15 K
  solubility (mole fraction): 0.0121
In toluene, 268.15 K
  solubility (mole fraction): 0.0103
In toluene, 273.15 K
  solubility (mole fraction): 0.0111
In toluene, 278.15 K
  solubility (mole fraction): 0.0136
In toluene, 283.15 K
  solubility (mole fraction): 0.017
In toluene, 288.15 K
  solubility (mole fraction): 0.0192
In toluene, 293.15 K
  solubility (mole fraction): 0.0228
In toluene, 298.15 K
  solubility (mole fraction): 0.0277
In toluene, 303.15 K
  solubility (mole fraction): 0.0339

## Oc1ccccc1/C=N/c1ccccn1
In diethyl ether, 268.15 K
  solubility (mole fraction): 0.0581
In diethyl ether, 273.15 K
  solubility (mole fraction): 0.0673
In diethyl ether, 278.15 K
  solubility (mole fraction): 0.0873
In diethyl ether, 283.15 K
  solubility (mole fraction): 0.107
In diethyl ether, 288.15 K
  solubility (mole fraction): 0.14
In diethyl ether, 293.15 K
  solubility (mole fraction): 0.17
In diethyl ether, 298.15 K
  solubility (mole fraction): 0.231
In ethanol, 268.15 K
  solubility (mole fraction): 0.0099
In ethanol, 273.15 K
  solubility (mole fraction): 0.0121
In ethanol, 278.15 K
  solubility (mole fraction): 0.0152
In ethanol, 283.15 K
  solubility (mole fraction): 0.0199
In ethanol, 288.15 K
  solubility (mole fraction): 0.0266
In ethanol, 293.15 K
  solubility (mole fraction): 0.035
In ethanol, 298.15 K
  solubility (mole fraction): 0.0489
In methanol, 268.15 K
  solubility (mole fraction): 0.00796
In methanol, 273.15 K
  solubility (mole fraction): 0.0107
In methanol, 278.15 K
  solubility (mole fraction): 0.0146
In methanol, 283.15 K
  solubility (mole fraction): 0.0187
In methanol, 288.15 K
  solubility (mole fraction): 0.0255
In methanol, 293.15 K
  solubility (mole fraction): 0.0346
In methanol, 298.15 K
  solubility (mole fraction): 0.0503
In toluene, 268.15 K
  solubility (mole fraction): 0.135
In toluene, 273.15 K
  solubility (mole fraction): 0.174
In toluene, 278.15 K
  solubility (mole fraction): 0.215
In toluene, 283.15 K
  solubility (mole fraction): 0.26
In toluene, 288.15 K
  solubility (mole fraction): 0.316
In toluene, 293.15 K
  solubility (mole fraction): 0.361
In toluene, 298.15 K
  solubility (mole fraction): 0.423
